Numbers after ± are expanded uncertainties.
Test: mn = molality of the nth substance listed, in mol/kg
Settings: 100 kPa, Liquid; for speed of sound: Frequency=3 MHz, Single path-length method; for mass density: Vibrating tube method

O=C([O-])C(=O)[O-].[K+].[K+] [potassium oxalate] + O
Settings | mass density, 288.15 K [kg/m3] | mass density, 298.15 K [kg/m3] | mass density, 308.15 K [kg/m3] | mass density, 318.15 K [kg/m3] | speed of sound, 288.15 K [m/s] | speed of sound, 298.15 K [m/s] | speed of sound, 308.15 K [m/s] | speed of sound, 318.15 K [m/s]
m1 = 0.2 | 1023.62 ± 0.58 | 1021.1 ± 0.57 | 1017.79 ± 0.57 | 1013.81 ± 0.56 | 1497 ± 1.4 | 1524.8 ± 1.4 | 1545.9 ± 1.4 | 1561.2 ± 1.3
m1 = 0.4 | 1046.97 ± 0.96 | 1044.13 ± 0.97 | 1040.55 ± 0.96 | 1036.39 ± 0.65 | 1525.3 ± 2.1 | 1550.9 ± 1.6 | 1570.5 ± 1.6 | 1584.6 ± 2.4
m1 = 0.6 | 1069.58 ± 1.4 | 1066.44 ± 1.4 | 1062.69 ± 1.4 | 1058.36 ± 1.6 | 1552.3 ± 1.3 | 1576.4 ± 2 | 1594.5 ± 1.9 | 1607.1 ± 1.6
m1 = 0.8 | 1092.28 ± 1.9 | 1088.95 ± 1.8 | 1084.89 ± 1.8 | 1080.46 ± 1.8 | 1580.5 ± 2.6 | 1602.3 ± 2.3 | 1618.8 ± 2.2 | 1630.1 ± 2.2

From the NIST ThermoML archive (doi:10.1016/j.jct.2019.06.023)
